Measured values published in patent publication US20260191999A1, “COMPOUNDS AND THEIR USE” (KING'S COLLEGE LONDON, priority 2022, published 2026).

Experiments:
[1] = test system: SKOV3-TRip2 and SKOV3-ip1 cells; test: Cell uptake of radiotracer, drug-resistant vs drug-sensitive SKOV3 cells; format: cell-based, human
Procedure: For cell uptake studies SKOV3-ip1 and SKOV3-TRip2, A549-WT, A549-KO-ALDH1A1, HEK293-WT and HEK293-ALDH1A1 cells were plated in 6 well plates 24 h prior to the studies, as described above (Western Blotting). One mL of fresh media containing 0.37 MBq of PQM-H-001 and 6 KBq PQM-H-002 was added to each well for the desired incubation time. At 40 min, plates were placed on ice, washed three times with ice-cold PBS to remove exogenous radioactivity and lysed in RIPA buffer ([…]; Fisher Scientific Ltd).
For all cell uptake and efflux study decay-corrected radioactivity in lysates was determined on a gamma counter ([…]; Wallac 1282 CompuGamma counter), with the remaining cell lysate centrifuged (21,000×g for 10 min at 4° C.) and the supernatant used to determine protein concentration following radioactive decay using a Pierce BCA assay. To quantify radiotracer uptake in cells, three standard solutions of the radioactivity-containing medium were counted on the gamma counter. Data were expressed as a percentage of total radioactivity administered to cells per mg of protein.
Next, the time-dependent uptake of the of the radiotracers PQM-H-001 ([^18F]PQM-H-001) and PQM-H-002 ([^125I]PQM-H-002) was profiled in drug-resistant SKOV3-Trip2 and drug-sensitive SKOV3-ip1 cell lines (Pereira, R., et al. 2019).

[2] = test system: SKOV3-TRip2 and SKOV3-ip1 subcutaneous tumours; test: In vivo tumour model and PET imaging; parameters: species or system Balb/c nu/nu mice
Procedure: All animal experiments were performed in accordance with the United Kingdom Home Office Animal (scientific procedures) Act […]. […] SKOV3-ip1 and 4×10^6 and SKOV3-TRip2 cells were injected subcutaneously into female Balb/c nu/nu mice aged 6-9 weeks (Charles River Laboratories). Tumour dimensions were measured using an electronic calliper and the volume calculated using the following equation: volume=((π/6)×h×w×l), where h, w and l represent, height, width, and length, respectively. Imaging studies took place when tumour size reached approximately 150-250 mm^3. Mice were anaesthetized with isoflurane (2.5% in oxygen) and maintained at 37° C. using an air-heated scanning bed. A tail vein cannula was inserted and a 3.7 MBq bolus of PQM-H-001 was administered in approximately 100 μL of PBS. Immediately following injection, 120 min PET acquisition was performed on a Mediso nanoScan PET/CT system. […] Reconstructed images (Tera-Tomo 3D reconstruction algorithm; 4 iterations; 6 subsets; 400-600 keV; 0.4 mm voxel size) were analysed using VivoQuant software (v. 2.5, Invicro Ltd.). Regions of interest (ROIs) were drawn manually on the CT images and the radioactivity concentration in each ROI expressed as a percentage of the injected dose per mL of tissue volume (% ID/mL).

Ex vivo biodistribution = format: in vivo, BALB/c-nu/nu mice; conditions: 90 min post radiotracer injection
Procedure: PQM-H-001 distribution was further evaluated ex vivo 90 min post radiotracer injection. […] Ex-vivo distribution of PQM-H-001 was performed after PET imaging (section: In Vivo Tumour Model and PET Imaging) by sacrificing all mice at time point 120 min post injection. Blood, tumour, and major organs and tissues were collected, wet-weighed, and counted using an automated y-counter (Wallac 1282 CompuGamma g counter). The concentrations of radioactivity in blood, tumor, and organs and tissues were determined as percentage injected of total radioactivity per gram (% ID/g).

SKOV3-ip1 cells = test: Cisplatin-induced growth inhibition, MTT assay, SKOV3-ip1; format: cell-based, human; conditions: MTT assay 72 h post treatment; second value of 'respectively' pair (SKOV3-ip1 as printed)
Procedure: FIG. 1a: Graph showing cisplatin-induced growth inhibition in SKOV3-ip1 cells (white circles) and SKOV3-TRip2 cells (filled squares) using an MTT assay 72 h post treatment (n=3-5).
The SKOV3-TRip2 cell line was generated through progressive exposure to paclitaxel (Duan et al., 1999) whereas the SKOV3-ip1 cell line remained untreated.

Compound | Radiotracer retention, drug resistant versus drug-sensitive cells [1] | Retention in treatment resistant SKOV3-TRip2 tumours compared to SKOV3-ip1 tumours ([2]; PET, subcutaneous tumours, 3.7 MBq i.v. bolus) | identification of drug resistant tumours in vivo (in words) ([2]; PET/CT imaging) | radiotracer retention in drug-resistant vs drug-sensitive tumours (in words) (Ex vivo biodistribution) | radiotracer retention in healthy tissues (in words) (Ex vivo biodistribution) | route of excretion (in words) (Ex vivo biodistribution) | EC50 (SKOV3-ip1 cells)
CS(=O)(=O)N1CCN(C(=O)c2cnc3ccc([18F])cc3c2-c2ccc(C3(C#N)CC3)cc2)CC1 [PQM-H-001, 1-(4-(6-(fluoro-^18F)-3-(4-(methylsulfonyl)piperazine-1-carbonyl)quinolin-4-yl)phenyl)cyclopropane-1-carbonitrile] | 9 times higher | > 5 × | can non-invasively identify drug resistant tumours in vivo | substantially increased in the drug-resistant tumours compared to drug-sensitive tumours | Low radiotracer retention was observed in most healthy tissues, except the liver | excretion occurring via the urinary and hepatobiliary tract | 
N.N.[Cl][Pt][Cl] [cisplatin] |  |  |  |  |  |  | 2600 nM
